Test results: US6762182B1, “Converting cox inhibition compounds that are not COX-2 selective inhibitors to derivatives that are COX-2 selective inhibitors” (Vanderbilt University, priority 1999, dated 2004)
Like-named read-outs stand apart in the source and are kept apart here.

Assays:
COX-2 [1] = biological target: T1, COX-2 (Homo sapiens, UniProt P35354); assay: TLC assay, inhibition of purified human COX-2; format: biochemical; conditions: for IC50: human COX-2 (66 nM)
T1 sequence (P35354 18-604): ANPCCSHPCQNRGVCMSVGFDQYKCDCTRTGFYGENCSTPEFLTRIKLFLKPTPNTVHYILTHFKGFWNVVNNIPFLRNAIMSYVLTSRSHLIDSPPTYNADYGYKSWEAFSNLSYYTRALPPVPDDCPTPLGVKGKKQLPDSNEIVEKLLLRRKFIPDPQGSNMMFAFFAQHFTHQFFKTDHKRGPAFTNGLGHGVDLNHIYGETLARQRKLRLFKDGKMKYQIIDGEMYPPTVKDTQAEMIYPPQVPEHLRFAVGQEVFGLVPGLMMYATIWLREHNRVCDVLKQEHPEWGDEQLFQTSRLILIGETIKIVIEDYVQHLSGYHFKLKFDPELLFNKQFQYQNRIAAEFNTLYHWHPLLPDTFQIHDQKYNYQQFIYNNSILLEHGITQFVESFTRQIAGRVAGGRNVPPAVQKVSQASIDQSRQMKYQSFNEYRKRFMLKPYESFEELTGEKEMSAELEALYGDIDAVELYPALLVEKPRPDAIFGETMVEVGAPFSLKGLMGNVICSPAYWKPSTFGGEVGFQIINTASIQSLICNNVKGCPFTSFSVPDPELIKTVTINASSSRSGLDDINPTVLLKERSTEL
Source text: (§1) Ovine COX-1 was used because it is very easy to isolate and to purify the enzyme from sheep seminal vesicles, whereas human COX-1 is normally obtained by over expression in an insect cell system and is very difficult to handle and especially to purify. COX-1 from sheep is >90% similar to COX-1 from humans. […] COX-1 was purified from ram seminal vesicles obtained from Oxford Biomedical Research, Inc. (Oxford, Mich.). […] The enzymes obtained after purification were apo (i.e., they lacked the hemprosthetic group).
(§2) Reactions were terminated by solvent extraction in Et2O/CH3OH/1 M citrate, pH 4.0 (30:4:1). The phases were separated by centrifugation at 2000 g-force for 2 minutes and the organic phase was spotted on a TLC plate (obtained from J. T. Baker, Phillipsburg, N.J.). The plate was developed in EtOAc/CH2Cl2/glacial AcOH (75:25:1) at 4° C. Radiolabeled prostanoid products were quantitatively determined with a radioactivity scanner (obtained from Bioscan, Inc., Washington, D.C.).

ovine COX-1 = biological target: T2, ovine COX-1 (Ovis aries, UniProt P05979); assay: TLC assay, inhibition of purified ovine COX-1
T2 sequence (P05979 25-600): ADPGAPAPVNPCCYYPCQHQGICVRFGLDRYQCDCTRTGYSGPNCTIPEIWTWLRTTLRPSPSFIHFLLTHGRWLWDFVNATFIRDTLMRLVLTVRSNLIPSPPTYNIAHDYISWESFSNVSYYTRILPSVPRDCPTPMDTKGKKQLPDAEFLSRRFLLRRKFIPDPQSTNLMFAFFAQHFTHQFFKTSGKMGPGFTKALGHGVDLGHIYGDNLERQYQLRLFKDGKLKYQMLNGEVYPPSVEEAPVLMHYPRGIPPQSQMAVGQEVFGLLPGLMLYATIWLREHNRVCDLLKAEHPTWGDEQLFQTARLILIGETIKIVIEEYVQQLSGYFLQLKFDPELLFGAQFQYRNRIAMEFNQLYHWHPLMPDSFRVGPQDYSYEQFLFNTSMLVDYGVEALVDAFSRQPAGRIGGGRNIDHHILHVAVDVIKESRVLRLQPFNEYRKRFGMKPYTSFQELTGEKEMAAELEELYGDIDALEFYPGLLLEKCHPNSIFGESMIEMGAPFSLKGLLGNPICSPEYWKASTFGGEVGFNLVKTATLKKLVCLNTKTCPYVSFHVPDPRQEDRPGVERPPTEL
Source text: as §1, §2

[2] = tested on: carrageenan-induced rat foot pad edema; assay: Rat foot pad edema model (carrageenan); format: in vivo; conditions: for 3 hour edema: gavage 1 hour post carrageenan, 6 rats
Procedure: Rats were injected with carrageenan, which triggers a rapid edema (swelling) within 3 hours that can be quantitatively measured by volume displacement.
In these experiments, the carrageenan that was injected was in 0.1 mL of aqueous saline so that 0.1 mL volume increase was due to the injection alone. […] More specifically, male Sprague-Dawley rats (150 g) received a subplantar injection of carrageenan (0.1 mL of a 1% suspension of carrageenan in sterile aqueous saline) into the right hind footpad while mildly anesthetized with methoxyflurane. […] The ipsilateral footpad volume (mL) was measured with a water displacement plethysmometer at time=3 hours post-injection and compared to the time=0 pre-injection paw volume for edema calculations.

COX-1 = COX-1 (Homo sapiens, UniProt P23219); conditions: background; cited from earlier work
COX-2 [3] = biological target: T1, COX-2; conditions: background; cited from earlier work
[4] = read-out: IC50 (μM) COX-1, Table 1 ester derivatives, ovine COX-1 (44 nM), 20 min at rt, then 14C-AA (50 μM) 37° C. 30 sec
[5] = Table 2 amide derivatives, 20 min, then 1-14C-AA (50 μM) 37° C. 30 sec
[6] = read-out: IC50 (μM) COX-1, Table 2 amide derivatives, ovine COX-1 (44 nM), 20 min, then 1-14C-AA (50 μM) 37° C. 30 sec

COX-1, sequence (P23219 24-599): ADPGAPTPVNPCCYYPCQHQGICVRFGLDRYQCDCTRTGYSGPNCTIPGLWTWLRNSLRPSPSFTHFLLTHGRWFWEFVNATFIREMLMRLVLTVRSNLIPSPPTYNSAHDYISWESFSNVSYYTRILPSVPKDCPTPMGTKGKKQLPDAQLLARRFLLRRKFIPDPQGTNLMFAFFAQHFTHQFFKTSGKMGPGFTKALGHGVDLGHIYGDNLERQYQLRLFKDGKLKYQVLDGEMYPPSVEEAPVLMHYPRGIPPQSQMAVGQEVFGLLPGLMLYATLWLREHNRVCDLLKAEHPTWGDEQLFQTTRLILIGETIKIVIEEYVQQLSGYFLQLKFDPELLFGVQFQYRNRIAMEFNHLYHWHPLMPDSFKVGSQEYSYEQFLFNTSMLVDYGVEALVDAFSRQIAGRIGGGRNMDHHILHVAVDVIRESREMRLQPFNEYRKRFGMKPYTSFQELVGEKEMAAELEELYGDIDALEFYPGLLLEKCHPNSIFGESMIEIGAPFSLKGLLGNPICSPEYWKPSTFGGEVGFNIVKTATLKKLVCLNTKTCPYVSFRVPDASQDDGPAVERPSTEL

Q: Which results are given for Cc1nc(-c2ccccc2)c(-c2ccc(S(N)(=O)=O)cc2)o1 [2-methyl-4-phenyl-5-sulfonamidophenyl oxazolo, reference compound]?
A: IC50 (COX-2 [1]; Table 1 ester derivatives, 20 min at rt, then 14C-AA (50 μM) 37° C. 30 sec): 0.06 µM; IC50 (ovine COX-1): > 66 µM; IC50 (ovine COX-1; [4]): > 66 µM

Q: With COC(=O)Cc1c(C)n(C(=O)c2ccc(Cl)cc2)c2ccc(OC)cc12 [Compound 2, Indomethacin methyl ester] as the molecule, how does the IC50 (ovine COX-1) read?
A: ~33 µM

Q: What about the IC50 (ovine COX-1; [4]) of the same molecule?
A: 33 µM

Q: Which IC50 (ovine COX-1) does the source give for COc1ccc2c(c1)c(CC(=O)OC(C)C)c(C)n2C(=O)c1ccc(Cl)cc1 [Compound 5, Indomethacin isopropyl ester] here?
A: 37 µM

Q: With CCCCCCCOC(=O)Cc1c(C)n(C(=O)c2ccc(Cl)cc2)c2ccc(OC)cc12 [Compound 11, Indomethacin heptyl ester] as the molecule, how does the IC50 (ovine COX-1) read?
A: > 66 µM

Q: With CCCCC#CCOC(=O)Cc1c(C)n(C(=O)c2ccc(Cl)cc2)c2ccc(OC)cc12 [Compound 14, Indomethacin hept-2-ynyl ester] as the molecule, how does the IC50 (ovine COX-1) read?
A: > 66 µM

Q: For CCC#CCC(C)OC(=O)Cc1c(C)n(C(=O)c2ccc(Cl)cc2)c2ccc(OC)cc12 (stereo not drawn) [Compound 15, Indomethacin 2-(hept-4-ynyl) ester], which IC50 (ovine COX-1) is on record?
A: > 66 µM

Q: With CCCCCCCCOC(=O)Cc1c(C)n(C(=O)c2ccc(Cl)cc2)c2ccc(OC)cc12 [Compound 16, Indomethacin octyl ester] as the molecule, how does the IC50 (ovine COX-1) read?
A: > 66 µM

Q: For COc1ccc2c(c1)c(CC(=O)Oc1ccc3ccccc3c1)c(C)n2C(=O)c1ccc(Cl)cc1 [Compound 25, Indomethacin β-naphthyl ester], which IC50 (ovine COX-1) is on record?
A: > 66 µM

Q: What does the source list for COc1ccc2c(c1)c(CC(=O)Nc1ccc(NC(C)=O)cc1)c(C)n2C(=O)c1ccc(Cl)cc1 [Compound 41, Indomethacin-N-(4-acetamidophenyl) amide]?
A: 3 hour edema ([2]; Concentration 0.2 mg/mL): 0.55 mL; 3 hour edema ([2]; Concentration 0.5 mg/mL): 0.47 mL; 3 hour edema ([2]; Concentration 1.0 mg/mL): 0.39 mL; 3 hour edema ([2]; Concentration 2.0 mg/mL): 0.38 mL; reduction in inflammation ([2]; rat, 2 mg/kg orally 1 hour after carrageenan, corrected for 0.1 mL injection volume): 80-85%

Q: With COc1ccc2c(c1)c(CC(=O)Nc1cc(OC)c(OC)c(OC)c1)c(C)n2C(=O)c1ccc(Cl)cc1 [Compound 46, Indomethacin-N-(3,4,5-trimethoxyphenyl) amide] as the molecule, how does the “Selectivity, ratio of IC50 (COX-1):IC50 (COX-2)” value (COX-2 [1]; Table 2 amide derivatives) read?
A: >66

Q: What about the IC50 (COX-2 [1]; [5]) of the same molecule?
A: > 1 µM

Q: And the IC50 (ovine COX-1; [6])?
A: > 66 µM

Q: With COc1ccc2c(c1)c(CC(=O)Nc1ccc(Cl)nc1)c(C)n2C(=O)c1ccc(Cl)cc1 [Compound 48, Indomethacin-N-5-((2-chloro)pyridyl) amide] as the molecule, how does the “Selectivity, ratio of IC50 (COX-1):IC50 (COX-2)” value (COX-2 [1]; Table 2 amide derivatives) read?
A: >1404

Q: What about the IC50 (COX-2 [1]; [5]) of the same molecule?
A: 0.047 µM

Q: And the IC50 (ovine COX-1; [6])?
A: > 66 µM

Q: Which IC50 (COX-2 [1]; [5]) does the source give for COC(=O)[C@H](C)NC(=O)Cc1c(C)n(C(=O)c2ccc(Cl)cc2)c2ccc(OC)cc12 [Compound 52, Indomethacin-N-2-(2-L-methoxycarbonylethyl) amide] here?
A: 0.4 µM

Q: With COc1ccc2c(c1)c(CC(=O)Nc1nc(C)cs1)c(C)n2C(=O)c1ccc(Cl)cc1 [Compound 57, Indomethacin-N-2-(4-methylthiazolyl) amide] as the molecule, how does the IC50 (ovine COX-1; [6]) read?
A: > 66 µM

Q: Which “reduction in inflammation, in words” value ([2]; rat, 2 mg/kg orally) does the source give for COc1ccc2c(c1)c(CC(=O)O)c(C)n2C(=O)c1ccc(Cl)cc1 [Indomethacin, reference compound] here?
A: comparable reduction in inflammation

Q: For CC1=C(CC(=O)O)c2cc(F)ccc2/C1=C\c1ccc(S(C)(=O)=O)cc1 [sulindac sulfone], which “COX-1 inhibition, in words” value (COX-1) is on record?
A: does not inhibit

Q: What about the “COX-2 inhibition, in words” value (COX-2 [3]) of the same molecule?
A: does not inhibit
